Laboratory results as given in US9034863B2, “Compositions and methods for inhibiting entry of a hepatic virus” (The Board of Trustees of the University of Illinois, priority 2008, dated 2015).
Like-named read-outs stand apart in the source and are kept apart here.

How the values were obtained:
HCV = HCV infection initiation in chimeric mice transplanted with human hepatocytes; format: in vivo
Huh7 cells = test: Cell proliferation assay (cellular ATP, […] Plus); format: cell-based, human; conditions: increasing doses
Text: The […] Plus Cell Proliferation assay kit (Lonza, Walkersville, Md.), which incorporates bioluminescent detection of cellular ATP as a measure of cell viability and proliferation, was used according to the manufacturer's instructions. Briefly, mock-treated and drug-treated cultures were lysed in Cell Lysis reagent for […]. One hundred μl of culture medium was transferred to white 96-well plates (BD Biosciences) containing ATP detection reagent and luminescence, expressed as relative light units (RLU), was measured (Fluostar OPTIMA). To assess drug-induced cellular toxicity, a bioluminescence-based assay (The TOXILIGHT BioAssay Kit, Lonza) that measures adenylate kinase (AK) released from damaged cells was used as per the manufacturer's instructions. […] One hundred μl of AK detection reagent was then added to each well, and luminescence (RLU) was measured (Fluostar OPTIMA).
To ensure that the inhibition observed was not due to ezetimibe-induced changes in cell proliferation or cytotoxicity, cellular ATP was measured as a read-out of Huh7 cell viability and proliferation and cellular toxicity by adenylate kinase release following treatment with increasing doses of ezetimibe. […] Furthermore, to test the specificity of the observed HCV inhibition, the effect of ezetimibe on entry of another flavivirus, Dengue virus (DNV), was assessed.

HCVcc [1] = test: HCV foci reduction assay, acute HCVcc infection of Huh7 cells; format: cell-based, Hepatitis C virus (HCV); conditions: for inhibition at 12.5 µM / inhibition at 25 µM: Hepatitis C virus, Huh-7, read-out: inhibition of HCV foci formation
HCVcc [2] = test: Steady-state HCVcc RNA levels in chronically infected Huh7 cultures, 24-96 h; format: cell-based, Hepatitis C virus (HCV); conditions: 30 μM, 24-96 hours post-treatment
Experimental: Huh7 cultures were inoculated with HCVcc at an MOI of 0.01 FFU cell-1. Infected cultures were maintained for an additional 10 days to allow HCV RNA to reach steady-state levels. Cultures were then vehicle-treated, treated with ezetimibe (30 μM) or 2′-C-methylcytidine (12.5 μM). Fresh medium containing the specified treatments was replenished every day throughout the course of the experiment. Intracellular RNA was collected from triplicate wells at 24, 48, 72 and 96 hours post-treatment and HCV RNA was quantified by RT-qPCR and normalized to GAPDH.

HCVcc JFH-1 = test: Chronic HCVcc infection in growing Huh7 cells, long-term treatment, RT-qPCR (FIG. 2); format: cell-based, Hepatitis C virus (HCV); conditions: alone, throughout ~70 days of treatment
Experimental: Cultures of growing Huh7 cells were inoculated with HCVcc JFH-1 at an MOT of 0.01 FFU/cell. Infected cultures were maintained for an additional 10 days to allow HCV RNA to reach steady-state levels. FIG. 2A, Cultures were mock treated, treated with ezetimibe alone (30 μM), IFN-α (100 U/ml) alone, or ezetimibe (30 μM) plus IFN-α (100 U/ml) in combination. Treatments were maintained as cultures were passaged. FIG. 2B, After 70 days IFN-α or combination ezetimibe plus IFN-α treatment, treatment was either continued (open shapes) or discontinued (filled shapes). […] Results are graphed as means±s.e.m. for triplicate samples. The data presented are representative of two independent experiments.
For experiments in growing cells, Huh7 cells seeded at 1×10^6 cells in a T75 cell culture flask (Corning) were infected with JFH-1 HCVcc at a MOI of 0.01 FFU/cell and subsequently cultured for 10 days to allow HCV RNA to reach steady-state levels. On day 10 post-infection, cells were split 1:4 and re-plated into T25 culture flasks (Corning). Twenty four hours post seeding, individual flasks were mock-treated with cDMEM or treated with cDMEM containing IFN-α (100 U/ml), ezetimibe (30 μM) or a combination of both IFN-α (100 U/ml) and ezetimibe (30 μM). Throughout the course of the experiment, fresh media with treatments was replenished every two days and cells were trypsinized just before reaching confluence and re-plated at a dilution of 1:3 to maintain active cell growth. […]
Total cellular RNA was purified using an ABI PRISM™ 6100 Nucleic Acid PrepStation (Applied Biosystems), as per the manufacturer's instructions. […] HCV JFH-1 and human GAPDH RNA transcript levels were determined relative to a standard curve derived from serial dilutions of plasmid containing the JFH-1 HCV cDNA or the human GAPDH coding sequence, respectively. […]
To confirm HCV clearance, drug treatments were subsequently discontinued on day 70 and HCV RNA levels were monitored for an additional 30 days.

[3] = co-incubated with HCVcc for 12 h
[4] = pre-treatment 6 h prior to infection, compared to untreated cultures

For `O=C1[C@H](CC[C@H](O)c2ccc(F)cc2)[C@@H](c2ccc(O)cc2)N1c1ccc(F)cc1` [ezetimibe, 1-(4-fluorophenyl)-(3R)-[3-(4-fluorophenyl)-(3S)-hydroxypropyl]-(45)-(4-hydroxyphenyl)-2-azetidinone], the HCV infection initiation (HCV) was “inhibits HCV infection initiation”, the “cell proliferation (cellular ATP)” value (Huh7 cells) was “did not inhibit cell proliferation” and the inhibition at 12.5 µM (HCVcc [1]; [3]) was 90%. It also gave an inhibition at 25 µM (HCVcc [1]; [3]) of 99%, an inhibition at 12.5 µM (HCVcc [1]; [4]) of 85% and an inhibition at 25 µM (HCVcc [1]; [4]) of 95%. The “degree of inhibition of HCV foci formation” value (HCVcc [1]; added to cells post-infection) was “greatly reduced”, the “steady state HCVcc RNA levels” value (HCVcc [2]) was “did not inhibit steady state HCVcc RNA levels” and the “intracellular HCV steady-state RNA levels” value (HCVcc JFH-1) was “did not reduce”.
